Experimental findings from BindingDB's records for doi:10.1016/j.bmcl.2007.06.017 (Tanabe Research Laboratories Usa, 2007) are described below.

For the assay, the target named is T1, Oxysterols receptor LXR-beta (Homo sapiens, UniProt P55055).
T1 sequence (P55055 whole entry): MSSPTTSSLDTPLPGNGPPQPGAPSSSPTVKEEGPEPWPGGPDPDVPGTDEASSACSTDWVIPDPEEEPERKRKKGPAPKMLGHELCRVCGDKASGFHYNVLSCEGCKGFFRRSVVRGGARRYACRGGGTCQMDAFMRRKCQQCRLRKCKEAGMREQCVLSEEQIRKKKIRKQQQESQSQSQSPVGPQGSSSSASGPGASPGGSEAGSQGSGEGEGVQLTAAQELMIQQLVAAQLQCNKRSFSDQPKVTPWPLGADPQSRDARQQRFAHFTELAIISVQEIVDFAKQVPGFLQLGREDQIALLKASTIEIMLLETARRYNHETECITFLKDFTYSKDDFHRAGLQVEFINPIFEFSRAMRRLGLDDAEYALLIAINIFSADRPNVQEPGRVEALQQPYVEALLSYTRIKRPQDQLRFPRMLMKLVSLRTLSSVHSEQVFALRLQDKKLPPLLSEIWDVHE
The experiment in a line: HTRF Cofactor Peptide Recruitment Assay. The following applies: pH 7.5; 22 °C. The protocol: Polyhistidine-tagged human LXR ligand-binding domain was mixed with the test compound, biotin-SRC1 peptide, streptavidin-allophycocyanin, and europium labeled anti-polyhistidine antibody in reaction buffer, and the mixture was incubated in a 384-well assay plate format.

As usually defined, the EC50 is the concentration that produces a half-maximal response. Higher therefore signals a less potent agent.

Take `CC(C)(C)OC(=O)n1c(-c2ccc(CCNS(=O)(=O)c3ccc(-c4ccccn4)s3)cc2)cc2ccccc21` [tert-butyl 2-[4-(2-{[5-(pyridin-2-yl)thiophene-2-]sulfonamido}ethyl)phenyl]-1H-indole-1-carboxylate]: a half-maximal effect (EC50) was put at 230 nM. This lies in the sub-micromolar range.
